Assay results taken from patent US11981944B2, “Immunogenic arginase peptides” (IO Biotech ApS, priority 2016, dated 2024).

Columns and labels:
Type in all cases: cell-based, human
[1] = system: PBMCs from healthy donors or cancer patients; assay: IFNγ ELISPOT on PBMCs after one week peptide and IL-2 stimulation (Example 2); conditions: for spontaneous IFNγ ELISPOT responses against 20-mer library peptides: cancer (melanoma) patient PBMCs, FIG. 9A
Protocol: PBMCs from healthy donors or cancer patients were stimulated with 80 μg of arginase-derived peptides and 120 U/ml IL-2 (Peprotech, London, UK, cat. 200-02) for a week. 4-6×10^5 PBMCs were then placed in the bottom of ELISPOT plate (nitrocellulose bottomed 96-well plates by MultiScreen MAIP […]; Millipore, cat. MSIPN4W50) pre-coated with IFN-y capture Ab (Mabtech, cat. 3420-3-1000) and 1-10 μg of arginase derived peptides were added. PBMCs from each patient and donors were set up in duplicates or triplicates for peptide and control stimulations. Cells were incubated in ELISPOT plates in the presence of an antigen for 14-16 hours after which they are washed off and secondary biotinylated Ab (Mabtech, cat. 3420-6-1000) was added. After 2 h incubation unbound secondary antibody was washed off and streptavidin conjugated alkaline phosphatase (AP) (Mabtech, cat. 3310-10) was added for 1 h. Next, unbound conjugated enzyme is washed off and the assay is developed by adding BCIP/NBT substrate (Mabtech, cat. 3650-10). Developed ELISPOT plates were analysed on CTL ImmunoSpot S6 Ultimate-V analyzer using Immunospot software v5.1. Responses were calculated as the difference between average numbers of spots in wells stimulated with Arginase-1 peptides and control wells. We divided the entire arginase-1 protein sequence into overlapping 20-amino-acid-long peptides, generating a library of 31 peptides covering the whole sequence (SEQ ID NOs 18-48)). Each peptide in the library overlapped with the first 10 amino acids of the following peptide. Using this arginase peptide library and the IFNγ ELISPOT assay, we next screened PBMCs from melanoma patients and healthy donors for spontaneous responses (FIGS. 9A and 9B). The PBMCs were stimulated for one week with a pool of 3-4 adjacent 20-mer arginase library peptides and low-dose IL-2 (120 U/mL). They were then set up for an IFNγ ELISPOT assay to screen for responses against each 20-mer peptide separately. […] Among these overlapping peptides, […]-200), and Arg(191-210) spanned a 50-amino-acid-long region that was deemed a hot-spot region since nearly all patients harbored a response against one or more of these peptides (FIG. 9A). The selected eight peptides were further used to screen for spontaneous immune responses against arginase-1 in PBMCs from eight healthy donors using IFNγ ELISPOT. […] Since we most frequently observed responses against arginase-1 peptides from the hot-spot region, we next analyzed whether longer peptides covering the same sequence could be used instead of four 20-mers. […] We then divided the arginase-1 hot-spot region into two 30-mer peptides that overlapped by 10 amino acids (peptides labelled by reference to start and end position): […]-190) and […]-210). These 30-mer peptides were used to check for responses in selected PBMCs from cancer patients and healthy donors, which had previously shown responses against the 20-mer hot-spot peptides. The PBMCs were stimulated for one week with either […]-190) or […]-210) in the presence of IL-2, and were then used in IFNγ ELISPOT.

[2] = system: TILs from eight melanoma patients; assay: Intracellular staining for IFNγ and TNFα release in melanoma TILs
Protocol: Flow cytometry analysis was performed on a FACSCantoTM II (BD Biosciences, San Jose CA, USA). Intracellular staining of cell cultures was performed after the cells were stimulated with 20-mere peptides for 5 hours or 30-mere peptides for 8h (BD GolgiPlugTM cat. 555029, was added after the first hour). The cells were then stained for surface markers, then washed and permeabilized by using Fixation/Permeabilization and Permeabilization Buffer (eBioscience, cat. 00-5123-43), according to manufacturer's instructions. Antibodies used: IFNγ-APC (cat. 341117), TNFα-BV421 (cat. 562783), CD4-FITC (cat. 347413), CD8-PerCP (cat. 345774) (all from BD Biosciences). Dead cells were stained using FVS510 (564406, BD Biosciences) according to manufacturer's instructions. To investigate the potential presence of arginase-specific T cells among tumor-infiltrating lymphocytes in cancer, we screened TILs from eight melanoma patients for responses against arginase-1 derived peptides. To this end, we performed intracellular staining for IFNγ and TNFα release in response to peptide stimulation. TILs were thawed and rested overnight without IL-2, and then stimulated for 5 h with three hot-spot immunogenic region 20-mer peptides (peptides labelled by reference to start and end position): […]-200). […] The percentage of IFNγ-producing cells was higher for […]-190) and […]-200) compared to […]-180), and the response against […]-200) was almost twice that against […]-180).

[3] = system: peripheral blood mononuclear cells (PBMC); assay: IFN-gamma ELISPOT secretion assay on PBMC (Example 1); conditions: for immune responses against overlapping 20mer peptides: PBMC from three cancer patients, FIG. 3; for specific T-cell responses against Arg-derived peptide: IFN-gamma ELISPOT, PBMC from six melanoma patients, FIG. 1

Sequence	immune responses against overlapping 20mer peptides [3]	specific T-cell responses against Arg-derived peptide [3]	also measured
AKDIVYIGLRDVDPGEHYIL (Peptide fragment of human Arginase 1) [Arg1-18, positions 171-190 of human Arginase 1]	Frequent immune responses were detected	–	spontaneous IFNγ ELISPOT responses against 20-mer library peptides [1]: highest and most abundant responses; percentage of IFNγ-producing cells compared to Arg(161-180) ([2]; CD4+ T cells in TILs, 5 h stimulation): higher; IFNγ or TNFα release from CD8+ T cells ([2]; TILs, 5 h peptide stimulation): No IFNγ or TNFα release was observed; IFNγ release from CD4+ T cells ([2]; one of the TIL cultures, 5 h peptide stimulation, FIG. 10A): IFNγ was released from CD4+ T cells
DIMEVNPSL (Peptide fragment of human Arginase 1) [Arg10, positions 274-282 of human Arginase 1]	–	Strong responses	–
DSPFQIVKNPRSVGKASEQL (Peptide fragment of human Arginase 1) [Arg1-7, positions 61-80 of human Arginase 1]	Frequent immune responses were detected	–	–
DVDPGEHYILKTLGIKYFSMTEVDRLGIGK (Peptide fragment of human Arginase 1) [Arg(181-210), 30-mer, positions 181-210 of human Arginase 1]	–	–	IFNγ ELISPOT responses against longer hot-spot peptides ([1]; selected PBMCs from cancer patients and healthy donors, one week stimulation with IL-2, FIG. 10B, 10C): lower than those against the overlapping 20-mer peptides
ELKGKIPDVPGFSWVTPCIS (Peptide fragment of human Arginase 1) [Arg1-16, positions 151-170 of human Arginase 1]	Frequent immune responses were detected	–	–
GDLPFADIPNDSPFQIVKNP (Peptide fragment of human Arginase 1) [Arg1-6, positions 51-70 of human Arginase 1]	Frequent immune responses were detected	–	–
GLLSGLDIM (Peptide fragment of human Arginase 1) [Arg9, positions 268-276 of human Arginase 1]	–	Strong responses	–
GRKKRPIHLSFDVDGLDPSF (Peptide fragment of human Arginase 1) [Arg1-23, positions 221-240 of human Arginase 1]	Frequent immune responses were detected	–	spontaneous IFNγ ELISPOT responses against 20-mer library peptides [1]: highest and most abundant responses
HARVHPDLGVIWVDAHTDIN (Peptide fragment of human Arginase 1) [Arg1-12, positions 111-130 of human Arginase 1]	Frequent immune responses were detected	–	spontaneous IFNγ ELISPOT responses against 20-mer library peptides [1]: highest and most abundant responses
HGQPVSFLLKELKGKIPDVP (Peptide fragment of human Arginase 1) [Arg1-15, positions 141-160 of human Arginase 1]	Frequent immune responses were detected	–	–
HLSFDVDGL (Peptide fragment of human Arginase 1) [Arg6, positions 228-236 of human Arginase 1]	–	Strong responses	–
KTLGIKYFSMTEVDRLGIGK (Peptide frgment of human Arginase 1) [Arg1-20, positions 191-210 of human Arginase 1]	Frequent immune responses were detected	–	spontaneous IFNγ ELISPOT responses against 20-mer library peptides [1]: highest and most abundant responses
LLKELKGKI [Arg3]	–	Strong responses	–
LLSGLDIMEV (Peptide fragment of human Arginase 1) [Arg11, positions 269-278 of human Arginase 1]	–	Strong responses	–
LRKAGLLEKLKEQECDVKDY (Peptide fragment of human Arginase 1) [Arg1-4, positions 31-50 of human Arginase 1]	Frequent immune responses were detected	–	spontaneous IFNγ ELISPOT responses against 20-mer library peptides [1]: highest and most abundant responses
LVLGGDHSL (Peptide fragment of human Arginase 1) [Arg2, positions 95-103 of human Arginase 1]	–	Strong responses	–
MSAKSRTIGIIGAPFSKGQP (Peptide fragment of human Arginase 1) [Arg1-1, positions 1-20 of human Arginase 1]	Frequent immune responses were detected	–	–
SLGKTPEEV (Peptide fragment of human Arginase 1) [Arg7, positions 281-289 of human Arginase 1]	–	Strong responses	–
SLGKTPEEVTRTVNTAVAIT (Peptide fragment of human Arginase 1) [Arg1-29, positions 281-300 of human Arginase 1]	Frequent immune responses were detected	–	–
TEEIYKTGLLSGLDIMEVNP (Peptide fragment of human Arginase 1) [Arg1-27, positions 261-280 of human Arginase 1]	Frequent immune responses were detected	–	spontaneous IFNγ ELISPOT responses against 20-mer library peptides [1]: highest and most abundant responses
TPLTTTSGNLHGQPVSFLLK (Peptide fragment of human Arginase 1) [Arg1-14, positions 131-150 of human Arginase 1]	Frequent immune responses were detected	–	–
VLGGDHSLAI (Peptide fragment of human Arginase 1) [Arg15, positions 96-105 of human Arginase 1]	–	Strong responses	–
VMEETLSYL (Peptide fragment of human Arginase 1) [Arg5, positions 211-219 of human Arginase 1]	–	Strong responses	–
VMEETLSYLLGRKKRPIHLS (Peptide fragment of human Arginase 1) [Arg1-22, positions 211-230 of human Arginase 1]	Frequent immune responses were detected	–	–
YLLGRKKRPI (Peptide fragment of human Arginase 1) [Arg14, positions 218-227 of human Arginase 1]	–	Strong responses	–
